Test results reported in US20260035643A1, “PHYSIOLOGIC AIRWAY MUCOSA AND PARENCHYMA BIOREACTOR AND EX VIVO WHOLE LUNG MODEL OF CYSTIC FIBROSIS FOR DISEASE MODELING AND THERAPEUTIC SCREENING” (The Trustees of Columbia University in the City of New York, priority 2023, published 2026).

Legend:
[1] = test system: tight junctions (TJs) of the airway epithelium; conditions: rat trachea lumen, 10 mM EDTA for 30 min, vs native
Source text: Quantification of airway epithelium integrity via bioimpedance measurement: To investigate the biophysical integrity of the airway epithelium nondestructively (FIG. 16), we created a platform that allowed quantification of the bioelectrical impedance (bioimpedance) of the airway tissue (FIG. 16A-B). This platform utilizes four electrode probes to measure the electrical properties of the tissue (FIG. 16C). During measurements, alternating electrical current (AC) at various frequencies (20 Hz-135 kHz) and 100 μA of magnitude were injected into the tissue using two current carrying electrodes (CC1 and CC2), while two voltage pick-up electrodes (PU1 and PU2) measured the potential distribution (FIG. 16C). The data were analyzed using the Cole model that describes the biological tissue as a combination of a resistor (R) and a constant phase element (CPE) (FIG. 16D, i).

human lungs = experiment: Xenogeneic cross-circulation support of human lungs with porcine host; conditions: added to the immunosuppressive therapy, human lungs on xenogeneic cross-circulation
Source text: Preliminary Results: We support human lungs utilizing EVLP and a xenogeneic cross-circulation platform. […] With the addition of cobra venom factor to the immunosuppressive therapy, the risk of acute rejection was mitigated.

Compound	bioimpedance of treated airway tissue [1]	risk of acute rejection (human lungs)
O=C(O)CN(CCN(CC(=O)O)CC(=O)O)CC(=O)O [EDTA, ethylenediaminetetraacetic acid]	reduced impedance	–
cobra venom factor	–	mitigated
